In ChEMBL document CHEMBL3987221, “The Australian National University Dept Of Immunology Pathogen Box Compounds Screened” (2018):
Calls of active or inactive are those of the source. The rule behind the calls is not given here.

Key:
[1] = biological target: T1, Porphobilinogen deaminase (Homo sapiens) (UniProt P08397); details: at 100 µM
T1 sequence (whole entry): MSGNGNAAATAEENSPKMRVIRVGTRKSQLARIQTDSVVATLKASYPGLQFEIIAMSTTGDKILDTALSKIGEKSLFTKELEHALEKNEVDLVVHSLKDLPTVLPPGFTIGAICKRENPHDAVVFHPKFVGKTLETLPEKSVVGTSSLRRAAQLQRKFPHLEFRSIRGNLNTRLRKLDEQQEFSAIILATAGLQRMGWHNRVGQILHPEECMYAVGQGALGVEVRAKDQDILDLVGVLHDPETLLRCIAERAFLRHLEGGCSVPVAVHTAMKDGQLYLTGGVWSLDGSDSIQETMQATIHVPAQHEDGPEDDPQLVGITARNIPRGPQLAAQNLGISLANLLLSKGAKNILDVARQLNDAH
Description: Compound was evaluated for the inhibition of human HMBS at 100uM

[2] = biological target: T2, Ferrochelatase, mitochondrial (Homo sapiens) (UniProt P22830); details: at 10 µM
T2 sequence (whole entry): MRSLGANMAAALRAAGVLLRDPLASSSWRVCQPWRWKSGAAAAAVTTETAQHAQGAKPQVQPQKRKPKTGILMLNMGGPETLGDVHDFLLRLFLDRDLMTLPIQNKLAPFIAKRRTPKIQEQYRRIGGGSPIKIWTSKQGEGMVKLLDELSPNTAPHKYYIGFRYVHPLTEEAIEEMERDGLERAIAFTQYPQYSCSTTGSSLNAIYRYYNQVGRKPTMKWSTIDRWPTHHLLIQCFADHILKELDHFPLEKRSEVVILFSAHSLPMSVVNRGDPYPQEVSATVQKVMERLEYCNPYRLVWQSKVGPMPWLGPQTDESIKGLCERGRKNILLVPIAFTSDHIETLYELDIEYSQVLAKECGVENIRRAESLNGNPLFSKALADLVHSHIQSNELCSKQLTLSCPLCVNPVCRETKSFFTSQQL
Description: Compound was evaluated for the inhibition of human FECH at 10uM

Cc1cc(Cl)c(S(=O)(=O)N2CCCC2)cc1OCC(=O)NC1CCCCC1
inhibition [1]: inactive
inhibition [2]: inactive

CCCn1c(NC(=O)c2ccc3ccccc3n2)nc2ccccc21
inhibition [1]: inactive
inhibition [2]: inactive

COc1ccc(-c2cnc3cnc(-c4cccc(OC(C)C)c4)cn23)cc1
inhibition [1]: inactive
inhibition [2]: inactive

CN1CCN(CCCOc2ncc(Nc3ncc(-c4ccc(C(F)(F)F)c(F)c4)nc3C(N)=O)cn2)CC1
inhibition [1]: inactive
inhibition [2]: inactive

O=C(OCc1ccccc1)N1CCC(c2cc(-c3ccncc3)c(-c3ccc(F)cc3)[nH]2)CC1
inhibition [1]: inactive
inhibition [2]: inactive

Cc1cc(C)nc(-n2nc(C)cc2Nc2ccccc2)n1
inhibition [1]: inactive
inhibition [2]: inactive

CCc1ccc([C@@H]2C[C@H](C(F)(F)F)n3ncc(C(=O)NCc4ccc(OC)cc4)c3N2)cc1
inhibition [1]: inactive
inhibition [2]: inactive

O=C(C1CCCCC1)N1CC(=O)N2CCc3ccccc3C2C1 (configuration not stated)
inhibition [1]: inactive
inhibition [2]: inactive

O=C(C1CCN(c2nnc(-n3cccc3)s2)CC1)N1CCC(Cc2ccccc2)CC1
inhibition [1]: inactive
inhibition [2]: inactive

CN1CCC(c2cc(-c3ccncc3)c(-c3ccc(F)cc3)[nH]2)CC1
inhibition [1]: inactive
inhibition [2]: inactive

CC1CCCN(C(=O)C(C)Nc2cc(Cl)ccc2N2CCOCC2)C1 (configuration not stated)
inhibition [1]: inactive
inhibition [2]: inactive

CCc1nc2ccccc2n1CC(O)COc1cc(C)ccc1Cl (configuration not stated)
inhibition [1]: inactive
inhibition [2]: inactive

COc1cc(C2=NCCN2)ccc1-n1cc(-c2cccc(C3=NCCN3)c2)nn1
inhibition [1]: inactive
inhibition [2]: inactive

NCC(c1cccs1)S(=O)(=O)c1ccccc1 (configuration not stated)
inhibition [1]: inactive
inhibition [2]: inactive

O=C(Nc1cccc(Cl)c1)c1cnc(N2CCN(c3ccncc3)CC2)c(Cl)c1
inhibition [1]: inactive
inhibition [2]: inactive

CNC(=O)C1Cc2ccccc2N1C(=O)Cc1ccc(F)cc1 (configuration not stated)
inhibition [1]: inactive
inhibition [2]: inactive

Cc1ccc2[nH]c(C3CCCNC3)c(-c3ccncc3)c2c1 (configuration not stated)
inhibition [1]: inactive
inhibition [2]: inactive

O=C(Nc1cccnc1)c1c(O)c2cccc3c2n(c1=O)CC3
inhibition [1]: inactive
inhibition [2]: inactive

CN1CCC(NCc2cccc(-c3ccc(S(=O)(=O)NCc4ccccc4)cc3)c2)CC1
inhibition [1]: inactive
inhibition [2]: inactive

CNC(=O)C1Cc2c([nH]c3cc(Cl)ccc23)C2(CCN(CCc3ccccc3)CC2)N1 (configuration not stated)
inhibition [1]: inactive
inhibition [2]: inactive

COc1ccc(S(=O)(=O)Nc2ccc(CN3CCN(C(=O)c4cccc(C#N)c4)CC3)cc2)cc1
inhibition [1]: inactive
inhibition [2]: inactive

CNc1cc(C)nc(C2CN(C(=O)c3n[nH]c4ccccc34)CCO2)c1 (configuration not stated)
inhibition [1]: inactive
inhibition [2]: inactive

Cc1nn(Cc2ccccc2)c(Cl)c1C(=O)NC1CCCCCC1
inhibition [1]: inactive
inhibition [2]: inactive

Cc1cccc(-c2nc(Nc3ccncn3)c3sccc3n2)n1
inhibition [1]: inactive
inhibition [2]: inactive

O=C(c1ccco1)N(CCCn1ccnc1)c1nc2c(Cl)cccc2s1
inhibition [1]: inactive
inhibition [2]: inactive

CC(C)(C)OC(=O)N1CCN(c2nccc(-c3ccc(-c4ccc(Cl)cc4)s3)n2)CC1
inhibition [1]: inactive
inhibition [2]: inactive

O=C(Nc1ccc(C(F)(F)F)c(C(F)(F)F)c1)c1cc(Cl)ccc1O
inhibition [1]: inactive
inhibition [2]: inactive

O=C1[C@@H](Oc2ccccc2)[C@@H](c2ccc(Cl)cc2)N1CCn1cnc2c(NCc3ccccc3)ncnc21
inhibition [1]: inactive
inhibition [2]: inactive

Cc1cc(Cl)ccc1NC(=O)CCc1ccc(S(=O)(=O)NCC(C)C)cc1
inhibition [1]: inactive
inhibition [2]: inactive

COc1cccn2c(C(=O)N3CCCCC3)c(C(F)(F)F)nc12
inhibition [1]: inactive
inhibition [2]: inactive

CC(C)=CCC/C(C)=C\CNCCNC1C2CC3CC(C2)CC1C3 (configuration not stated)
inhibition [1]: inactive
inhibition [2]: inactive

C[C@H]1COc2c(N3CCN(C)CC3)c(F)cc3c(=O)c(C(=O)O)cn1c23
inhibition [1]: inactive
inhibition [2]: inactive

Cc1ccc(NC(=O)CC2COc3ccccc3O2)cc1Cl (configuration not stated)
inhibition [1]: inactive
inhibition [2]: inactive

O=C(Nc1ccc2c(c1)B(O)OC2)c1ccccc1C(F)(F)F
inhibition [1]: inactive
inhibition [2]: inactive

O=C(CN1CCOCC1)Nc1ccc2ncnc(Nc3ccc(OCc4cccc(F)c4)c(Cl)c3)c2c1
inhibition [1]: inactive
inhibition [2]: inactive

CC(Oc1ccccc1)C(=O)Nc1nc(-c2ccccn2)cs1 (configuration not stated)
inhibition [1]: inactive
inhibition [2]: inactive

NC(=O)c1cc(-c2ccsc2)ccc1OCCOc1ccccc1
inhibition [1]: inactive
inhibition [2]: inactive

Cc1cc(C)c2cc(C(=O)NC3CCCCCCC3)[nH]c2c1
inhibition [1]: inactive
inhibition [2]: inactive

O=C(C1CCN(c2cc(-n3cccc3)ncn2)CC1)N1CCc2ccccc2C1
inhibition [1]: inactive
inhibition [2]: inactive

Cc1ccc(S(=O)(=O)N2CCN(C(=O)c3cc(-c4ccccc4)n[nH]3)CC2)cc1
inhibition [1]: inactive
inhibition [2]: inactive

CO[C@@H](C(=O)N1Cc2[nH]nc(NC(=O)c3ccc(N4CCN(C)CC4)cc3)c2C1)c1ccccc1
inhibition [1]: inactive
inhibition [2]: inactive

CC(C)(C)OC(=O)N1CCC(Cn2nc(-c3cnc4ccccc4c3)c3c(N)ncnc32)CC1
inhibition [1]: inactive
inhibition [2]: inactive

Cc1cc2nc(NC(=O)C(C)(C)C)nc(Cl)c2n1Cc1ccc(Cl)cc1
inhibition [1]: inactive
inhibition [2]: inactive

O=C(COc1cccc(F)c1)Nc1nc(-c2ccccn2)cs1
inhibition [1]: inactive
inhibition [2]: inactive

CC(C)NCC(=O)Nc1cccc(C(=O)Nc2cccc(C(F)(F)F)c2)c1
inhibition [1]: inactive
inhibition [2]: inactive

CO/N=C(\C(=O)OC)c1ccccc1CO/N=C(\C)c1cccc(C(F)(F)F)c1
inhibition [1]: inactive
inhibition [2]: inactive

Nc1nccc2ccc(-c3ccc4nccn4c3)cc12
inhibition [1]: inactive
inhibition [2]: inactive

Cc1ccc(NC(=O)c2cc(S(=O)(=O)NC(C)(C)C)ccc2C)nc1
inhibition [1]: inactive
inhibition [2]: inactive

Nc1ncnc2[nH]nc(Cc3cccc4ccccc34)c12
inhibition [1]: inactive
inhibition [2]: inactive

CC(C)(C)c1cc(C(=O)Nc2cccnc2)cc(C(=O)Nc2cccnc2)c1
inhibition [1]: inactive
inhibition [2]: inactive

COc1ccc(C(=N)N)cc1-c1cn(-c2ccc(C(=N)N)cc2)nn1
inhibition [1]: inactive
inhibition [2]: inactive

O=C(Nc1nnc(-c2ccc(Cl)s2)o1)c1ccc(Cl)s1
inhibition [1]: inactive
inhibition [2]: inactive

NS(=O)(=O)c1cncc(-c2ccc3nccc(-c4cn[nH]c4)c3n2)c1
inhibition [1]: inactive
inhibition [2]: inactive

CS(=O)(=O)c1cccc(-c2cnc3[nH]cc(-c4ccc(CCC(=O)O)cc4)c3c2)c1
inhibition [1]: inactive
inhibition [2]: inactive

c1cncc(NCc2ccc(-c3cc4ccncc4cc3OC3CCNCC3)s2)c1
inhibition [1]: inactive
inhibition [2]: inactive

Clc1cccc(C(c2ccc(CN3CCNCC3)cc2)n2ccnc2)c1 (configuration not stated)
inhibition [1]: inactive
inhibition [2]: inactive

O=C(Nc1ccccc1-c1nc2c(C(=O)O)cccc2o1)c1ccccc1
inhibition [1]: inactive
inhibition [2]: inactive

CC(C)(C)n1nc(Cc2ccc(F)c(Cl)c2)c2c(N)ncnc21
inhibition [1]: inactive
inhibition [2]: inactive

CC(=O)Nc1ccc(NC(=O)c2cc(-c3cc(Cl)ccc3O)n[nH]2)cc1
inhibition [1]: inactive
inhibition [2]: inactive

CC[C@H](CO)NCCN[C@H](CC)CO
inhibition [1]: inactive
inhibition [2]: inactive

COc1ccc2nc(C)cc(OCC(=O)NCc3ccccc3)c2c1
inhibition [1]: inactive
inhibition [2]: inactive

O=C(NC1CCN(c2ccnc3ccccc23)C1)c1cccc(C(F)(F)F)c1 (configuration not stated)
inhibition [1]: inactive
inhibition [2]: inactive

Cc1ccc2nc(C)c(-c3ccn(Cc4ccccc4)n3)n2c1
inhibition [1]: inactive
inhibition [2]: inactive

COc1cccc(OC)c1C(=O)Nc1ccc(Cl)c(-c2nc3ccccc3s2)c1
inhibition [1]: inactive
inhibition [2]: inactive

Brc1c(-c2ccc3c(c2)OCO3)nc2ncccn12
inhibition [1]: inactive
inhibition [2]: inactive

CC(=O)Oc1ccccc1C(=O)Nc1ncc([N+](=O)[O-])s1
inhibition [1]: inactive
inhibition [2]: inactive
